Data as given in ChEMBL document CHEMBL1201862, “PubChem BioAssay data set” (2004).
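Step 1: Grow cells in 96-well plates. Step 2: Expose to compound for 48 hours at 5 concentrations. Step 3: Interpolate endpoints linearly; if unreached, use highest concentration. Abbreviation: GI50, concentration required for 50% inhibition of growth.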 Calls of active or inactive are those of the source. No stated cut-off is given here; in the data, active = GI50 up to about 1.1 µM and inactive = higher.

Columns and labels:
Experiment in all cases: NCI-60 cell line screen, 48 h
[1] = system: ACHN
[2] = system: CCRF-CEM
[3] = system: DU-145
[4] = system: EKVX
[5] = system: HCC 2998
[6] = system: HL-60
[7] = system: KM12
[8] = system: MCF7
[9] = system: MDA-N
[10] = system: Malme-3M
[11] = system: OVCAR-3
[12] = system: OVCAR-4
[13] = system: OVCAR-8
[14] = system: PC-3
[15] = system: SF-539
[16] = system: SK-MEL-28
[17] = system: SR
[18] = system: T47D
[19] = system: TK-10
[20] = system: U-251

Compound	GI50 [1]	GI50 [2]	GI50 [3]	GI50 [4]	GI50 [5]	GI50 [6]	GI50 [7]	GI50 [8]	GI50 [9]	GI50 [10]	GI50 [11]	GI50 [12]	GI50 [13]	GI50 [14]	GI50 [15]	GI50 [16]	GI50 [17]	GI50 [18]	GI50 [19]	GI50 [20]
CC1=CC(=O)[C@@H](O)[C@]2(C)[C@H]3[C@@]4(O)OC[C@@]35[C@@H](C[C@@H]12)OC(=O)C(OC(=O)CC1=CCCC1)[C@H]5[C@@H](C)[C@H]4O (stereo not given in full)	0.0344 µM (active)	0.0197 µM (active)	0.0665 µM (active)	0.224 µM (active)	0.04 µM (active)	< 0.0168 µM (active)	0.0256 µM (active)	< 0.0142 µM (active)	0.0269 µM (active)	0.0164 µM (active)	0.0239 µM (active)	0.0527 µM (active)	0.0279 µM (active)	0.0311 µM (active)	0.0169 µM (active)	0.0204 µM (active)	0.0168 µM (active)	0.0771 µM (active)	0.0408 µM (active)	0.0158 µM (active)
CC(=O)NC(CS)C(=O)O (stereo not given)	16600 µM (inactive)	> 100 µM (inactive)	21400 µM (inactive)	4670 µM (inactive)	20700 µM (inactive)	34200 µM (inactive)	33300 µM (inactive)	25200 µM (inactive)	> 100 µM (inactive)	8220 µM (inactive)	16800 µM (inactive)	50900 µM (inactive)	24700 µM (inactive)	33200 µM (inactive)	26100 µM (inactive)	19900 µM (inactive)	44100 µM (inactive)	26900 µM (inactive)	10000 µM (inactive)	19300 µM (inactive)
C=C(C(=O)O)[C@@H]1C[C@@H]2O[C@H]1CC(C)=CCC/C(C)=C/CC[C@@]2(C)O	> 100 µM (inactive)	> 100 µM (inactive)	> 100 µM (inactive)	> 100 µM (inactive)	> 100 µM (inactive)	> 100 µM (inactive)	> 100 µM (inactive)	> 100 µM (inactive)	> 100 µM (inactive)	> 100 µM (inactive)	> 100 µM (inactive)	> 100 µM (inactive)	> 100 µM (inactive)	> 100 µM (inactive)	> 100 µM (inactive)	> 100 µM (inactive)	> 100 µM (inactive)	> 100 µM (inactive)	> 100 µM (inactive)	> 100 µM (inactive)
CCOC(=O)CCC(NC(=O)c1ccc(Oc2nc3ccc(C(F)(F)F)cc3nc2-c2ccccc2)cc1)C(=O)OCC (stereo not given)	5.61 µM (inactive)	> 100 µM (inactive)	> 100 µM (inactive)	12.9 µM (inactive)	> 100 µM (inactive)	> 100 µM (inactive)	11.2 µM (inactive)	> 41.5 µM (inactive)	> 100 µM (inactive)	14.2 µM (inactive)	30.8 µM (inactive)	6.22 µM (inactive)	9.06 µM (inactive)	> 58.3 µM (inactive)	3.01 µM (inactive)	> 100 µM (inactive)	> 100 µM (inactive)	> 42.2 µM (inactive)	15.1 µM (inactive)	20.4 µM (inactive)
CCNC(=O)Nc1cccc(C)n1	> 100 µM (inactive)	> 100 µM (inactive)	> 100 µM (inactive)	15.7 µM (inactive)	> 100 µM (inactive)	67.8 µM (inactive)	> 100 µM (inactive)	> 100 µM (inactive)	> 100 µM (inactive)	> 100 µM (inactive)	> 100 µM (inactive)	> 100 µM (inactive)	> 100 µM (inactive)	> 100 µM (inactive)	> 100 µM (inactive)	> 100 µM (inactive)	> 100 µM (inactive)	> 100 µM (inactive)	> 100 µM (inactive)	> 100 µM (inactive)
